This assay addresses T1, sGC enzyme (Homo sapiens, UniProt Q02108+Q02153).
T1 construct: incorporated into these cells detect cGMP formed by the compounds stimulating the sGC enzyme; host or cells: HEK293 cells stably expressing GloSensor 40F cGMP biosensor
T1 sequence (Q02153 1-619): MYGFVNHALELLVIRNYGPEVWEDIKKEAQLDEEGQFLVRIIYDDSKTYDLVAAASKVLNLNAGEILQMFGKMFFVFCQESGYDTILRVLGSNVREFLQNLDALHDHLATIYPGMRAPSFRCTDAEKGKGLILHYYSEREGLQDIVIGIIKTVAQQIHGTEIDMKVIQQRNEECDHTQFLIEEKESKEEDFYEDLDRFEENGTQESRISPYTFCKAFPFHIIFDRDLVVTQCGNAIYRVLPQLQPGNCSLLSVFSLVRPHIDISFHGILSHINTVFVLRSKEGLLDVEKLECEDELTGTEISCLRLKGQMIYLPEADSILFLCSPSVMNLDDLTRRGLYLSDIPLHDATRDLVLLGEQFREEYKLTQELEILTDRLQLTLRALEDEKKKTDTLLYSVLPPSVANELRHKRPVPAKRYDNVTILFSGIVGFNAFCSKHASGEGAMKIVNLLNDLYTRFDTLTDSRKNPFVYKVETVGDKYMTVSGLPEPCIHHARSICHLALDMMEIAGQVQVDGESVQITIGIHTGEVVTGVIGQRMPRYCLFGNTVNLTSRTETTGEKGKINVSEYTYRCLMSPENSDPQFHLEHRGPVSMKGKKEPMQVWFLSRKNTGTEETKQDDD
T1 sequence (Q02108 1-690): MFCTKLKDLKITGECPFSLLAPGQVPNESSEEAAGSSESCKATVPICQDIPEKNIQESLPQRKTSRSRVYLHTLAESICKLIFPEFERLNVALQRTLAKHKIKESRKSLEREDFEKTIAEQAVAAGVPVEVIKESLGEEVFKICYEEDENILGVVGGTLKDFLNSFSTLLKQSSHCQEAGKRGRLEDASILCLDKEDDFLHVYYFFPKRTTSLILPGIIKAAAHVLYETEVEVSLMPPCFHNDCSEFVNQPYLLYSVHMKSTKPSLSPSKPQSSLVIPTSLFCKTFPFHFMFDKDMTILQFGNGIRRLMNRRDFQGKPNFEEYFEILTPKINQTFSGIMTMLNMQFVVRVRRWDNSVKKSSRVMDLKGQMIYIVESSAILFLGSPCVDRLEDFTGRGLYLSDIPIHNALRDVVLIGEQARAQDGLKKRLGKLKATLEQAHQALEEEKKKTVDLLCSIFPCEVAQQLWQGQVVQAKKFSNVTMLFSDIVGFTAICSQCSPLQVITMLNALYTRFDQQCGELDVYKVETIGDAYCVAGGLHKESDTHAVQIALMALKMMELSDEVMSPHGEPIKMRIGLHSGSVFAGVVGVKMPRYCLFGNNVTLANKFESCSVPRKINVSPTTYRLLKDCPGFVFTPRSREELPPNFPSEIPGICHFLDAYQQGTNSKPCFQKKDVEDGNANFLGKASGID
Nature of the assay: cGMP GloSensor cell-based assay, 384-well format. The conditions noted are these: HEK293 cells expressing GloSensor 40F cGMP, 10 μM DETA-NONOate, normalized to 30 μM Compound Y. The source says: Human embryonic kidney cells (HEK293) cells expressing GloSensor™ 40F cGMP (Part No: CS182801, Promega) were used to evaluate the activity of test compounds. The luminescent biosensors (engineered luciferase) that were incorporated into these cells detect cGMP formed by the compounds stimulating the sGC enzyme and emit luminescence.
cGMP GloSensor cells were maintained in Dulbecco's Modification of Eagle's Medium (DMEM) supplemented with fetal bovine serum (FBS, 10% final) and hygromycine (200 ug/ml). […] Cells were incubated overnight at 37° C. in a humidified chamber with 5% CO2. The next day, medium was removed and cells were replaced with 40 ul/well of GloSensor™, 2 mM (Promega Cat No E1291). Cells were treated for 90 minutes at 25° C. to allow the substrate to equilibrate in the cells. […] For endpoint SAR screening, data were collected after 55 min incubation at room temperature.
Data were fit using a 4-parameter fit (log(agonist) vs. response—variable slope) using GraphPad Prism Software v.5. n=2 for all compounds. […] Compounds failing to elicit a minimum response of 50% are reported as >30 μM or ND.

Where [1] appears, read: compounds in Table IA, read-out: Glo-sensor AbsEC50.
The mark [2] stands for this setting: compounds in Table IB, read-out: Glo-sensor Abs EC50.

“And” between values parts separate entries of the source, which are not always exact repeats. Equal entries are not always repeated. Where two headings read alike, the source gives them in different places.

In the case of `CC(C)(O)c1n[nH]c(-c2nn(Cc3ccccc3F)c3ncccc23)n1` [Compound I-94, 2-(5-(1-(2-fluorobenzyl)-1H-pyrazolo[3,4-b]pyridin-3-yl)-1H-1,2,4-triazol-3-yl)propan-2-ol], under setting [1], the EC50 lay within 100 to 1000 nM.

Take `Cc1ccc2c(-c3nc(C(F)(F)F)n[nH]3)nn(Cc3ccccc3F)c2n1` [Compound I-50, 1-(2-Fluorobenzyl)-6-methyl-3-(3-(trifluoromethyl)-1H-1,2,4-triazol-5-yl)-1H-pyrazolo[3,4-b]pyridine]: the EC50 under setting [1] is under 100 nM. On the same count and under the same terms, the result for `Cc1n[nH]c(-c2nn(Cc3ccccc3F)c3ncccc23)n1` [Compound I-60, 1-(2-Fluorobenzyl)-3-(3-methyl-1H-1,2,4-triazol-5-yl)-1H-pyrazolo[3,4-b]pyridine] reads under 100 nM; that for `Fc1ccc(Cn2nc(-c3nc(C(F)(F)F)n[nH]3)c3cccnc32)cc1` [Compound I-53, 1-(4-Fluorobenzyl)-3-(3-(trifluoromethyl)-1H-1,2,4-triazol-5-yl)-1H-pyrazolo[3,4-b]pyridine], under 100 nM. For `Fc1ccccc1Cc1nc(-c2nc(C(F)(F)F)n[nH]2)n2ccncc12` [Compound I-44, 1-(2-Fluorobenzyl)-3-(3-(trifluoromethyl)-1H-1,2,4-triazol-5-yl)imidazo[1,5-a]pyrazine], the EC50 under setting [2] was over 1000 nM. Regarding `Fc1cccnc1Cn1nc(-c2nc(C(F)(F)F)n[nH]2)c2cccnc21` [Compound I-13, 1-((3-Fluoropyridin-2-yl)methyl)-3-(3-(trifluoromethyl)-1H-1,2,4-triazol-5-yl)-1H-pyrazolo[3,4-b]pyridine], under setting [1], the EC50 lay in the range of 100 to 1000 nM. Consider `Fc1ccccc1Cn1nc(-c2nc(C(F)(F)F)n[nH]2)c2ccncc21` [Compound I-32], for which the EC50 under setting [1] was 100 to 1000 nM. On the same count and under the same terms, the result for `FCCN1CC(c2n[nH]c(-c3nn(Cc4ccccc4F)c4ncccc34)n2)C1` [Compound I-97, 1-(2-Fluorobenzyl)-3-(3-(1-(2-fluoroethyl)azetidin-3-yl)-1H-1,2,4-triazol-5-yl)-1H-pyrazolo[3,4-b]pyridine] reads 100 to 1000 nM.

`Fc1ccccc1Cn1nc(-c2nc(OCC(F)(F)F)n[nH]2)c2cccnc21` [Compound I-83, 1-(2-Fluorobenzyl)-3-(3-(2,2,2-trifluoroethoxy)-1H-1,2,4-triazol-5-yl)-1H-pyrazolo[3,4-b]pyridine]: under setting [1], the EC50 was over 1000 nM. On the same count and under the same terms, the result for `Fc1cc(F)cc(Cc2nn(-c3nc(C(F)F)n[nH]3)c3cccnc23)c1` [Compound I-123, 3-(3,5-Difluorobenzyl)-1-(3-(difluoromethyl)-1H-1,2,4-triazol-5-yl)-1H-pyrazolo[4,3-b]pyridine] reads 100 to 1000 nM. For the compound `FC(F)(F)CCn1nc(-c2nc(C(F)(F)F)n[nH]2)c2cccnc21` [Compound I-7, 3-(3-(Trifluoromethyl)-1H-1,2,4-triazol-5-yl)-1-(3,3,3-trifluoropropyl)-1H-pyrazolo[3,4-b]pyridine], the EC50 under setting [1] was over 1000 nM. In the case of `O=C(N1CC(c2n[nH]c(-c3nn(Cc4ccccc4F)c4ncccc34)n2)C1)C(F)(F)F` [Compound I-75], under setting [1], the EC50 lay in the range of 100 to 1000 nM. As for `Fc1cc(F)cc(Cc2nn(-c3nc(C(F)(F)F)n[nH]3)c3cccnc23)c1` [Compound I-121, 3-(3,5-Difluorobenzyl)-1-(3-(trifluoromethyl)-1H-1,2,4-triazol-5-yl)-1H-pyrazolo[4,3-b]pyridine], the EC50 under setting [1] was in the range of 100 to 1000 nM. The same measure, in the same setting: the result for `Fc1ccccc1Cn1nc(-c2nc(N3CC(F)(F)C3)n[nH]2)c2cccnc21` [Compound I-88, 3-(3-(3,3-difluoroazetidin-1-yl)-1H-1,2,4-triazol-5-yl)-1-(2-fluorobenzyl)-1H-pyrazolo[3,4-b]pyridine] reads over 1000 nM. Take `Fc1cc(F)c2c(Cc3cncnc3)nc(-c3nc(C(F)(F)F)n[nH]3)n2c1` [Compound I-28, 6,8-Difluoro-1-(pyrimidin-5-ylmethyl)-3-(3-(trifluoromethyl)-1H-1,2,4-triazol-5-yl)imidazo[1,5-a]pyridine]: under setting [2], the EC50 was under 100 nM.

Turning to `Fc1ccccc1Cn1nc(-c2nc(-c3ccccc3)n[nH]2)c2cccnc21` [Compound I-39], under setting [1], the EC50 was over 1000 nM. Still for that read-out and setting: in the case of `CC1(c2n[nH]c(-c3nn(Cc4ccccc4F)c4ncccc34)n2)CC1` [Compound I-63, 1-(2-Fluorobenzyl)-3-(3-(1-methylcyclopropyl)-1H-1,2,4-triazol-5-yl)-1H-pyrazolo[3,4-b]pyridine] it was under 100 nM; in that of `CC1(c2n[nH]c(-c3nn(Cc4ccccc4F)c4ncccc34)n2)COC1` [Compound I-70, 1-(2-fluorobenzyl)-3-(3-(3-methyloxetan-3-yl)-1H-1,2,4-triazol-5-yl)-1H-pyrazolo[3,4-b]pyridine], 100 to 1000 nM and > 1000 nM; in that of `Cc1ncc(Cn2nc(-c3nc(C(F)(F)F)n[nH]3)c3ccc(Cl)cc32)cn1` [Compound I-22, 6-Chloro-1-((2-methylpyrimidin-5-yl)methyl)-3-(3-(trifluoromethyl)-1H-1,2,4-triazol-5-yl)-1H-indazole], under 100 nM. In the case of `CC(C)(C)OC(=O)NC1(c2n[nH]c(-c3nn(Cc4ccccc4F)c4ncccc34)n2)COC1` [Compound I-76, tert-Butyl (3-(5-(1-(2-fluorobenzyl)-1H-pyrazolo[3,4-b]pyridin-3-yl)-1H-1,2,4-triazol-3-yl)oxetan-3-yl)carbamate], the EC50 under setting [1] fell in the range of 100 to 1000 nM.

With `Fc1cccc(Cc2nn(-c3nc(C(F)F)n[nH]3)c3cccnc23)c1` [Compound I-122, 1-(3-(Difluoromethyl)-1H-1,2,4-triazol-5-yl)-3-(3-fluorobenzyl)-1H-pyrazolo[4,3-b]pyridine], the EC50 under setting [1] was 100 to 1000 nM.

For `Fc1cccc(F)c1Cn1nc(-c2nc(C(F)(F)F)n[nH]2)c2cccnc21` [Compound I-42], the EC50 under setting [1] is under 100 nM. Same read-out and setting: in the case of `FC(F)(F)c1n[nH]c(-c2nn(CC(F)(F)C(F)(F)F)c3ncccc23)n1` [Compound I-19, 1-(2,2,3,3,3-Pentafluoropropyl)-3-(3-(trifluoromethyl)-1H-1,2,4-triazol-5-yl)-1H-pyrazolo[3,4-b]pyridine] it was over 1000 nM; in that of `Nc1n[nH]c(-c2nn(Cc3ccccc3F)c3ncccc23)n1` [Compound I-84, 5-(1-(2-fluorobenzyl)-1H-pyrazolo[3,4-b]pyridin-3-yl)-1H-1,2,4-triazol-3-amine], 100 to 1000 nM. Consider `NCc1n[nH]c(-c2nn(Cc3ccccc3F)c3ncccc23)n1` [Compound I-115, (5-(1-(2-fluorobenzyl)-1H-pyrazolo[3,4-b]pyridin-3-yl)-1H-1,2,4-triazol-3-yl)methanamine], for which the EC50 under setting [1] lay within 100 to 1000 nM. In the case of `FC(F)(F)c1n[nH]c(-c2nn(CCC(F)(F)C(F)(F)F)c3cc(Cl)ccc23)n1` [Compound I-3, 6-chloro-1-(3,3,4,4,4-pentafluorobutyl)-3-(3-(trifluoromethyl)-1H-1,2,4-triazol-5-yl)-1H-indazole], the EC50 under setting [1] lay within 100 to 1000 nM. Still for that read-out and setting: in the case of `Cc1ncc(Cn2nc(-c3nc(C(F)(F)F)n[nH]3)c3cccc(Cl)c32)cn1` [Compound I-46, 7-Chloro-1-((2-methylpyrimidin-5-yl)methyl)-3-(3-(trifluoromethyl)-1H-1,2,4-triazol-5-yl)-1H-indazole] it was 100 to 1000 nM.

The values above are taken from patent US12435080B2, “sGC stimulators” (Tisento Therapeutics Inc., priority 2016, dated 2025).
